Series [1] in a line: Plasma protein binding by equilibrium dialysis. Particulars: rat, 37° C., plasma vs isotonic phosphate buffer pH 7.4, read-out: % free in plasma. In kind it is in vitro ADME. The procedure:
(§1) Measurement of Plasma Levels and Plasma Protein Binding Following Oral Administration to Rats
The plasma protein binding of compounds was measured using the equilibrium dialysis technique (W. Lindner et al, J. Chromatography, 1996, 677, 1-28 ). Compound was dialysed at a concentration of 20 μM for 18 hours at 37° C. with plasma and isotonic phosphate buffer pH 7.4 (1 ml of each in the dialysis cell). A Spectrum® 20-cell equilibrium dialyser was used together with Teflon, semi-micro dialysis cells and Spectra/Por®2 membrane discs with a molecular weight cut off 12-14000 Dalton, 47 mm (supplied by PerBio Science UK Ltd, Tattenhall, Cheshire). Plasma and buffer samples are removed following dialysis and analysed using HPLCUV/MS (high performance liquid chromatography with UV and mass spec detection) to give the % free level in plasma.

Series [2] can be described thus: Plasma levels following oral administration to rats. In kind it is in vivo. Particulars: rat, oral gavage; including both bound and free; normalised dose of 1 mg compound per kilogram of rat body weight. The method, then: as §1
Planetary Milled compounds [15 mins, 500 rpm, 5 Zirconium Balls, in a Puluerisette 7 Mill (Glen Creston Ltd, Stanmore, Middlesex, UK)] were suspended in 0.5% HPMC Tween and dosed to High Fat Fed (Research Diets, D12451, ad lib feeding 14 days) Female Alderley Park Zucker or Alderley Park Wistar rats at rate of 5 mls/kg, at doses between 0.3 and 10 mg/kg by oral gavage.
Samples of plasma were obtained either by conscious blood sampling or terminal blood sampling as follows:
Conscious blood sampling (for compound level or blood chemistry)—Intravenous blood samples were taken from tail vein using 600 μl Starstedt Multivette (EDTA) and 22 G needle at the required time point. […]
The reconstituted samples were then analysed using high performance liquid chromatography with tandem mass spectrometry detection (HPLC-MS-MS)”. […]
The concentration of test samples was determined from the ratio of the peak height of the test sample to the peak height of the internal standard. The concentration of the test sample was calculated with reference to a standard curve relating the ratio to the concentration prepared by using known concentrations of test sample added to samples of rat plasma using (3-isopropoxy-5-benzyoxy-benzoyl)amino pyridine 3-carboxylic acid as an internal standard, treated as described above.

Molecules are shown by their SMILES.

This note sets out measurements from patent US20070078168A1, “PYRIDINE CARBOXYLIC ACID DERIVATIVES AS GLUCOKINASE MODULATORS” (priority 2003, published 2007).

`COC[C@H](C)Oc1cc(O[C@@H](C)Cc2ccccc2OC)cc(C(=O)Nc2ccc(C(=O)O)cn2)c1` [Example 2.1, 6-{3-[(1S)-1-methyl-2-(2-methoxyphenyl)ethoxy]-5-[(1S)-2-methoxy-1-methylethoxy]-benzoylamino}-3-pyridine carboxylic acid]: the fraction unbound at 18 hours, 20 μM in series [1] stood at 0.0042. Further, in series [2], the “Peak Blood levels” value is 1.29 µM.
